Measurements from patent publication US6284768A, “Src family SH2 domain inhibitors” (Boehringer Ingelheim Pharmaceuticals, Inc., priority 1999, dated 2001).
pIC50, pKd: −log10 of the molar value.

Experiments:
[1] = test system: Inter-leukin 2 (IL-2) production by activated Human Primary T Lymphocytes; test: Primary T cell assay: inhibition of IL-2 production by activated human primary CD4 positive T lymphocytes; assay type: cell-based; conditions: Homo sapiens, CD4 positive, Table 5; mean IC50 value; CD4 positive T cells activated with anti-CD3/anti-CD28, IL-2 by ELISA; read-out: IC50 (blocking IL-2 production)
Experimental: Summary of Primary T Cell Assay.
Inhibitors of the lck SH2 domain were assayed for their ability to block Inter-leukin 2 (IL-2) production by activated Human Primary T Lymphocytes. Peripheral blood mononuclear cells were isolated from whole blood by centrifugation in ficoll-Pague partitioning medium. CD4 positive cells were purified using negative selection. […] The compounds, at the appropriate dilutions, were added, and the cells were incubated for 60 minutes at 37° C. The CD4 positive T cells were then activated by the addition of anti-CD3 (60 ng/mL), anti CD28 (500 ng/mL) and goat anti mouse IgG coated beads, and incubated overnight at 37° C. The cells were pelleted, and the supernatents assayed for IL-2 by ELISA.
As SH2 domain containing proteins are intracellular, any therapeutic agent must be able to cross biological membranes. […] These characteristics may be quantified by observing inhibition in IL-2 production in human blood CD4 positive T-lymphocytes after T cell receptor and CD28 cross-linking.

[2] = target: T1, p56lck GST-SH2 (lck SH2 domain) (Homo sapiens, UniProt P06239); test: Receptor-ligand equilibrium binding constants by surface plasmon resonance (biosensor), lck SH2 domain; conditions: Table 1, compounds of formula (II)
T1 construct: GST (N)
T1 sequence (P06239 127-224 limits assumed): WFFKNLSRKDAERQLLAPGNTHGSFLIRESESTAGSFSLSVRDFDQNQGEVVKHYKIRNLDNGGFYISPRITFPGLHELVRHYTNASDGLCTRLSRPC

SMILES | pIC50 [1] | pKd [2]
CCC(C(=O)N[C@@H](Cc1ccc(C(C)(C)C(=O)O)cc1)C(=O)Nc1c(C)ccn(Cc2ccc(OC)cc2)c1=O)c1ccc2ccccc2c1 (stereo partly shown) [Compound 109] | 4.11 | 6.48
CCCCCCn1ccc(C)c(NC(=O)C(Cc2ccc(C(C)(C)C(=O)O)cc2)NC(=O)Cc2c(F)c(F)c(F)c(F)c2F)c1=O (stereo not shown) [Compound 142] | 4.03 | 5.89
COc1ccc(Cn2ccc(C)c(NC(=O)C(Cc3ccc(C(C)(C)C(=O)O)cc3)NC(=O)Cc3ccc(-c4ccccc4)cc3)c2=O)cc1 (stereo not shown) [Compound 158] | 4.12 | 5.77
Cc1ccn(Cc2ccccc2Oc2ccccc2)c(=O)c1NC(=O)C(Cc1ccc(C(C)(C)C(=O)O)cc1)NC(=O)Cc1ccc2ccccc2c1 (stereo not shown) [Compound 156] | 4.34 | 5.40
CCCCCCCn1ccc(C)c(NC(=O)C(Cc2ccc(C(C)(C)C(=O)O)cc2)NC(=O)Cc2ccc3ccccc3c2)c1=O (stereo not shown) [Compound 138] | 4.19 | 6.08
CCC(CC)(C(=O)N[C@@H](Cc1ccc(C(C)(C)C(=O)O)cc1)C(=O)Nc1c(C)ccn(Cc2ccc(OC)cc2)c1=O)c1ccc2ccccc2c1 [Compound 123] | 4.46 | 6.08
CCOc1ccc(Cn2ccc(C)c(NC(=O)C(Cc3ccc(C(C)(C)C(=O)O)cc3)NC(=O)Cc3ccc4ccccc4c3)c2=O)cc1 (stereo not shown) [Compound 135] | 4.46 | 5.89
Cc1ccn(CCc2ccccc2)c(=O)c1NC(=O)C(Cc1ccc(C(C)(C)C(=O)O)cc1)NC(=O)Cc1ccc2ccccc2c1 (stereo not shown) [Compound 200] | 4.06 | 5.66
COc1ccc(Cn2ccc(C)c(NC(=O)C(Cc3ccc(C4(C(=O)O)CCCC4)cc3)NC(=O)Cc3ccc4ccccc4c3)c2=O)cc1 (racemic) [Compound 108] | 4.16 | 5.55
COc1ccc(Cn2ccc(C)c(NC(=O)[C@H](Cc3ccc(C(C)(C)C(=O)O)cc3)NC(=O)Cc3ccc(C(C)C)cc3)c2=O)cc1 [Compound 94] | 3.81 | 6.68
CCC(CC)(C(=O)O)c1ccc(C[C@H](NC(=O)Cc2ccc3ccccc3c2)C(=O)Nc2c(C)ccn(Cc3ccc(OC)cc3)c2=O)cc1 [Compound 106] | 4.09 | 6.33
COc1ccc(Cn2ccc(C)c(NC(=O)[C@H](Cc3ccc(C(C)(C)C(=O)O)cc3)NC(=O)Cc3ccc4ccccc4c3)c2=O)cc1 [Compound 97] | 3.95 | 6.85
COc1ccc(Cn2ccc(C)c(NC(=O)[C@H](Cc3ccc(C(C)(C)C(=O)O)cc3)NC(=O)Cc3ccc(NCC(C)(C)C)cc3)c2=O)cc1 [Compound 132] | 3.85 | 6.60
COc1ccc(Cn2ccc(C)c(NC(=O)[C@H](Cc3ccc(C(C)(C)C(=O)O)cc3)NC(=O)Cc3c(C)cc(C)cc3C)c2=O)cc1 [Compound 117] | 3.97 | 6.43
COc1ccc(Cn2ccc(C)c(NC(=O)[C@H](Cc3ccc(C(C)(C)C(=O)O)cc3)NC(=O)[C@@H](C)c3ccc(CC(C)C)cc3)c2=O)cc1 [Compound 127] | 4.28 | 5.85
COc1ccc(Cn2c(C)cc(C)c(NC(=O)[C@H](Cc3ccc(C(C)(C)C(=O)O)cc3)NC(=O)Cc3ccc4ccccc4c3)c2=O)cc1 [Compound 219] | 4.15 | 5.66
COc1ccc(Cn2ccc(C)c(NC(=O)C(Cc3ccc(C(C)(C)C(=O)O)cc3)NC(=O)C(C)(C)c3ccc(-c4ccccc4)cc3)c2=O)cc1 (stereo not shown) [Compound 159] | 4.60 | 5.85
Cc1ccn(Cc2ccc(C(F)(F)F)cn2)c(=O)c1NC(=O)[C@H](Cc1ccc(C(C)(C)C(=O)O)cc1)NC(=O)Cc1ccc2ccccc2c1 [Compound 128] | 3.68 | 5.80
Cc1ccn(CCCCC(C)C)c(=O)c1NC(=O)C(Cc1ccc(C(C)(C)C(=O)O)cc1)NC(=O)Cc1ccc2ccccc2c1 (stereo not shown) [Compound 145] | 4.25 | 6.08
Cc1ccn(CC2(c3ccccc3)CC2)c(=O)c1NC(=O)C(Cc1ccc(C(C)(C)C(=O)O)cc1)NC(=O)C(C)(C)c1ccc2ccccc2c1 (stereo not shown) [Compound 215] | 4.44 | 5.23
COc1ccc(Cn2ccc(C)c(NC(=O)[C@H](Cc3ccc(C(C)(C)C(=O)O)cc3)NC(=O)C(C)(C)c3ccc(C(C)C)cc3)c2=O)cc1 [Compound 118] | 4.21 | 6.21
CCOc1ccc(Cn2ccc(C)c(NC(=O)C(Cc3ccc(C(C)(C)C(=O)O)cc3)NC(=O)C(C)(C)c3ccc4ccccc4c3)c2=O)cc1 (stereo not shown) [Compound 139] | 4.25 | 5.54
COc1ccc(Cn2ccc(C)c(NC(=O)[C@H](Cc3ccc(C(C)(C)C(=O)O)cc3)NC(=O)C(C)c3ccc(CC(C)C)cc3)c2=O)cc1 (stereo partly shown) [Compound 112] | 4.22 | 5.82
Cc1ccn(Cc2ncc(C(F)(F)F)cc2Cl)c(=O)c1NC(=O)[C@H](Cc1ccc(C(C)(C)C(=O)O)cc1)NC(=O)Cc1ccc2ccccc2c1 [Compound 129] | 3.97 | 5.55
Cc1ccn(Cc2ccc3c(c2)OCO3)c(=O)c1NC(=O)C(Cc1ccc(C(C)(C)C(=O)O)cc1)NC(=O)C(C)(C)c1ccc2ccccc2c1 (stereo not shown) [Compound 154] | 4.35 | 5.92
Cc1ccn(CC2(c3ccccc3)CC2)c(=O)c1NC(=O)C(Cc1ccc(C(C)(C)C(=O)O)cc1)NC(=O)Cc1cccc2ccccc12 (stereo not shown) [Compound 213] | 3.78 | 5.70
COc1ccc(Cn2ccc(C)c(NC(=O)C(Cc3ccc(C(C)(C)C(=O)O)cc3)NC(=O)Cc3c(OC)ccc4ccccc34)c2=O)cc1 (stereo not shown) [Compound 187] | 4.28 | 6.74
CCCCCn1ccc(C)c(NC(=O)C(Cc2ccc(C(C)(C)C(=O)O)cc2)NC(=O)Cc2ccc3ccccc3c2)c1=O (stereo not shown) [Compound 192] | 3.77 | 5.92
CCCCCCn1ccc(C)c(NC(=O)C(Cc2ccc(C(C)(C)C(=O)O)cc2)NC(=O)Cc2ccc3ccccc3c2)c1=O (stereo not shown) [Compound 137] | 4.12 | 6.29
